Laboratory results published in US8895547B2, “Substituted phenyl-oxathiazine derivatives, method for producing them, drugs containing said compounds and the use thereof” (Sanofi, priority 2011, dated 2014).

target: T1, human 11β-HSD1 (Homo sapiens, UniProt P28845); experiment: Enzymatic 11beta-HSD1 test (SPA-based detection); assay type: biochemical; conditions: human 11β-HSD1 microsome fraction, [1,2-3H]-cortisone, NADPH, 37° C. 1 hour
T1 construct: host or cells: microsome fraction
In short: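 Scintillation proximity detection: anti-cortisol antibody on SPA-PVT beads captured tritiated cortisol. The stop mix also contained 0.01 mM SSR110887 and was equilibrated 1 h at room temperature before counting. Cortisol came from [1,2-3H]-cortisone ([…]), turned over by human 11β-HSD1 microsomal protein (0.2 µg) with 0.25 mM NADPH in HEPES buffer, 37 °C, 1 h.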

T1 sequence (P28845 whole entry): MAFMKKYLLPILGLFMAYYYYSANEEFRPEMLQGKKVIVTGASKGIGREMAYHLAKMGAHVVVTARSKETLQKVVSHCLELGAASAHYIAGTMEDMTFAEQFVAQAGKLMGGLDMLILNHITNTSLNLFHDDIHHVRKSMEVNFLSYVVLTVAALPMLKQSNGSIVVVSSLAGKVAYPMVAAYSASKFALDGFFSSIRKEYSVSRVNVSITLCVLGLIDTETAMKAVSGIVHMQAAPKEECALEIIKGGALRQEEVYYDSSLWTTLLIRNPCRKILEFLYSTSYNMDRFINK

SMILES | IC50 [nM]
CC1(C)OC(NC(CCO)c2cccc(F)c2F)=NS(=O)(=O)C1c1ccc(-c2ccccc2)cc1 (stereo not drawn) [Example 82, 3-(5-Biphenyl-4-yl-6,6-dimethyl-4,4-dioxo-5,6-dihydro-4H-4lambda6-[1,4,3]oxathiazin-2-ylamino)-3-(2,3-difluorophenyl)-propan-1-ol] | 23
CC1(C)OC(N[C@@H](CCO)c2ccccc2Cl)=NS(=O)(=O)C1c1ccc(-c2ccccc2)cc1 (stereo partly drawn) [Example 83, (S)-3-(5-Biphenyl-4-yl-6,6-dimethyl-4,4-dioxo-5,6-dihydro-4H-4lambda6-[1,4,3]oxathiazin-2-ylamino)-3-(2-chloro-phenyl)-propan-1-ol] | 17
CC1(C)OC(N[C@@H](CCO)c2ccc(Cl)cc2)=NS(=O)(=O)C1c1ccc(-c2ccccc2)cc1 (stereo partly drawn) [Example 88, (S)-3-(5-Biphenyl-4-yl-6,6-dimethyl-4,4-dioxo-5,6-dihydro-4H-4lambda6-[1,4,3]oxathiazin-2-ylamino)-3-(4-chloro-phenyl)-propan-1-ol] | 198
CC1(C)OC(N[C@@H](CCO)c2cccc(Cl)c2)=NS(=O)(=O)C1c1ccc(-c2ccccc2)cc1 (stereo partly drawn) [Example 89, (S)-3-(5-Biphenyl-4-yl-6,6-dimethyl-4,4-dioxo-5,6-dihydro-4H-4lambda6-[1,4,3]oxathiazin-2-ylamino)-3-(3-chloro-phenyl)-propan-1-ol] | 21
CC1(C)OC(N[C@@H](CCO)c2ccccc2F)=NS(=O)(=O)C1c1ccc(-c2ccc(Cl)s2)cc1 (stereo partly drawn) [Example 91, (S)-3-{5-[4-(5-Chlorothiophen-2-yl)-phenyl]-6,6-dimethyl-4,4-dioxo-5,6-dihydro-4H-4lambda6-[1,4,3]oxathiazin-2-ylamino}-3-(2-fluorophenyl)-propan-1-ol] | 11
CC1(C)OC(N[C@@H](CCO)c2ccccc2F)=NS(=O)(=O)C1c1ccc(-c2cc(Cl)sc2Cl)cc1 (stereo partly drawn) [Example 92, (S)-3-{5-[4-(2,5-Dichlorothiophen-3-yl)-phenyl]-6,6-dimethyl-4,4-dioxo-5,6-dihydro-4H-4lambda6-[1,4,3]oxathiazin-2-ylamino}-3-(2-fluorophenyl)-propan-1-ol] | 23
COc1ccccc1-c1ccc(C2C(C)(C)OC(N[C@@H](CCO)c3ccccc3F)=NS2(=O)=O)cc1 (stereo partly drawn) [Example 94, (S)-3-(2-Fluorophenyl)-3-[5-(2′-methoxy-biphenyl-4-yl)-6,6-dimethyl-4,4-dioxo-5,6-dihydro-4H-4lambda6-[1,4,3]oxathiazin-2-ylamino]-propan-1-ol] | 14
CC1(C)OC(N[C@@H](CCO)c2cccc(F)c2Cl)=NS(=O)(=O)C1c1ccc(-c2ccccc2)cc1 (stereo partly drawn) [Example 96, (S)-3-(5-Biphenyl-4-yl-6,6-dimethyl-4,4-dioxo-5,6-dihydro-4H-4lambda6-[1,4,3]oxathiazin-2-ylamino)-3-(2-chloro-3-fluorophenyl)-propan-1-ol] | 10
CC1(C)OC(N[C@@H](CCO)c2ccc(F)cc2F)=NS(=O)(=O)C1c1ccc(-c2ccccc2)cc1 (stereo partly drawn) [Example 97, (S)-3-(5-Biphenyl-4-yl-6,6-dimethyl-4,4-dioxo-5,6-dihydro-4H-4lambda6-[1,4,3]oxathiazin-2-ylamino)-3-(2,4-difluorophenyl)-propan-1-ol] | 16
CC1(C)OC(N[C@@H](CCO)c2cc(F)ccc2F)=NS(=O)(=O)C1c1ccc(-c2ccccc2)cc1 (stereo partly drawn) [Example 98, (S)-3-(5-Biphenyl-4-yl-6,6-dimethyl-4,4-dioxo-5,6-dihydro-4H-4lambda6-[1,4,3]oxathiazin-2-ylamino)-3-(2,5-difluorophenyl)-propan-1-ol] | 12
CC1(C)OC(N[C@@H](CCO)c2cc(Cl)ccc2F)=NS(=O)(=O)C1c1ccc(-c2ccccc2)cc1 (stereo partly drawn) [Example 99, (S)-3-(5-Biphenyl-4-yl-6,6-dimethyl-4,4-dioxo-5,6-dihydro-4H-4lambda6-[1,4,3]oxathiazin-2-ylamino)-3-(5-chloro-2-fluorophenyl)-propan-1-ol] | 25
Cc1ccc(F)cc1[C@H](CCO)NC1=NS(=O)(=O)C(c2ccc(-c3ccccc3)cc2)C(C)(C)O1 (stereo partly drawn) [Example 100, (S)-3-(5-Biphenyl-4-yl-6,6-dimethyl-4,4-dioxo-5,6-dihydro-4H-4lambda6-[1,4,3]oxathiazin-2-ylamino)-3-(5-fluoro-2-methyl-phenyl)-propan-1-ol] | 19
CN1CCC(c2ccc(C3C(C)(C)OC(N[C@@H](CCO)c4ccccc4F)=NS3(=O)=O)cc2)CC1 (stereo partly drawn) [Example 103] | 32
CC1(C)OC(N[C@@H](CCO)c2ccccc2F)=NS(=O)(=O)C1c1ccc(C2CCN(CCO)CC2)cc1 (stereo partly drawn) [Example 104] | 28
CC1(C)OC(N[C@@H](CCO)c2ccccc2F)=NS(=O)(=O)C1c1ccc(CCCN)cc1 (stereo partly drawn) [Example 106, (5)-3-{5-[4-(3-Amino-propyl)-phenyl]-6,6-dimethyl-4,4-dioxo-5,6-dihydro-4H-4lambda6-[1,4,3]oxathiazin-2-ylamino}-3-(2-fluorophenyl)-propan-1-ol] | 26
CC1(C)OC(N[C@@H](CCO)c2ccccc2F)=NS(=O)(=O)C1c1ccc(N2CCOCC2)cc1 (stereo partly drawn) [Example 107, (S)-3-[6,6-Dimethyl-5-(4-morpholin-4-yl-phenyl)-4,4-dioxo-5,6-dihydro-4H-4lambda6-[1,4,3]oxathiazin-2-ylamino]-3-(2-fluorophenyl)-propan-1-ol] | 33
CN(C)CCCc1ccc(C2C(C)(C)OC(N[C@@H](CCO)c3ccccc3F)=NS2(=O)=O)cc1 (stereo partly drawn) [Example 108, (S)-3-{5-[4-(3-Dimethylamino-propyl)-phenyl]-6,6-dimethyl-4,4-dioxo-5,6-dihydro-4H-4lambda6-[1,4,3]oxathiazin-2-ylamino}-3-(2-fluorophenyl)-propan-1-ol] | 42
CN1CCN(c2ccc(C3C(C)(C)OC(N[C@@H](CCO)c4ccccc4F)=NS3(=O)=O)cc2)CC1 (stereo partly drawn) [Example 109] | 79
CC1(C)OC(N[C@@H](CCO)c2ccccc2F)=NS(=O)(=O)C1c1ccc(CCCN2CCOCC2)cc1 (stereo partly drawn) [Example 110] | 27

The remaining lines, values ahead:

IC50 [nM] | SMILES
8 | Cc1ccccc1-c1ccc(C2(C)C(C)(C)OC(N[C@@H](CCO)c3ccccc3F)=NS2(=O)=O)cc1 (stereo partly drawn) [Example 79, (S)-3-(2-Fluorophenyl)-3-[5,6,6-trimethyl-5-(2′-methyl-biphenyl-4-yl)-4,4-dioxo-5,6-dihydro-4H-4lambda6-[1,4,3]oxathiazin-2-ylamino]-propan-1-ol]
7 | CC1(C)OC(N[C@@H](CCO)c2ccccc2F)=NS(=O)(=O)C1(C)c1ccc(-c2ccc(F)cc2)cc1 (stereo partly drawn) [Example 80, (S)-3-[5-(4′-Fluorobiphenyl-4-yl)-5,6,6-trimethyl-4,4-dioxo-5,6-dihydro-4H-4lambda6-[1,4,3]oxathiazin-2-ylamino]-3-(2-fluorophenyl)-propan-1-ol]
10 | COc1ccc(-c2ccc(C3(C)C(C)(C)OC(N[C@@H](CCO)c4ccccc4F)=NS3(=O)=O)cc2)cc1 (stereo partly drawn) [Example 81, (S)-3-(2-Fluorophenyl)-3-[5-(4′-methoxy-biphenyl-4-yl)-5,6,6-trimethyl-4,4-dioxo-5,6-dihydro-4H-4lambda6-[1,4,3]oxathiazin-2-ylamino]-propan-1-ol]
10 | COc1cccc(-c2ccc(C3C(C)(C)OC(N[C@@H](CCO)c4ccccc4F)=NS3(=O)=O)cc2)c1 (stereo partly drawn) [Example 86]
7 | CC1(C)OC(N[C@@H](CCO)c2ccccc2F)=NS(=O)(=O)C1c1ccc(-c2ccccc2C#N)cc1 (stereo partly drawn) [Example 87]
7 | CC1(C)OC(N[C@@H](CCO)c2ccccc2F)=NS(=O)(=O)C1c1ccc(-c2cncnc2)cc1 (stereo partly drawn) [Example 90, (S)-3-[6,6-Dimethyl-4,4-dioxo-5-(4-pyrimidin-5-yl-phenyl)-5,6-dihydro-4H-4lambda6-[1,4,3]oxathiazin-2-ylamino]-3-(2-fluorophenyl)-propan-1-ol]
6 | CC1(C)OC(N[C@@H](CCO)c2ccccc2F)=NS(=O)(=O)C1c1ccc(-c2cccc(C#N)c2)cc1 (stereo partly drawn) [Example 93]
6 | CC1(C)OC(N[C@@H](CCO)c2ccccc2F)=NS(=O)(=O)C1c1ccc(-c2ccc(C#N)cc2)cc1 (stereo partly drawn) [Example 95]
5 | CC1(C)OC(N[C@@H](CCO)c2ccccc2F)=NS(=O)(=O)C1c1ccc(-c2cscn2)cc1 (stereo partly drawn) [Example 101, (S)-3-[6,6-Dimethyl-4,4-dioxo-5-(4-thiazol-4-yl-phenyl)-5,6-dihydro-4H-4lambda6-[1,4,3]oxathiazin-2-ylamino]-3-(2-fluorophenyl)-propan-1-ol]
6 | CC1(C)OC(N[C@@H](CCO)c2ccccc2F)=NS(=O)(=O)C1c1ccc(C(F)(F)F)cc1 (stereo partly drawn) [Example 102, (S)-3-[6,6-Dimethyl-4,4-dioxo-5-(4-trifluormethyl-phenyl)-5,6-dihydro-4H-4lambda6-[1,4,3]oxathiazin-2-ylamino]-3-(2-fluorophenyl)-propan-1-ol]
8 | CC1(C)OC(N[C@@H](CCO)c2ccccc2F)=NS(=O)(=O)C1c1ccc(C2CCN(CC(F)F)CC2)cc1 (stereo partly drawn) [Example 105]
7 | Cn1nccc1-c1ccc(C2C(C)(C)OC(N[C@@H](CCO)c3ccccc3F)=NS2(=O)=O)cc1 (stereo partly drawn) [Example 111, (S)-3-{6,6-Dimethyl-5-[4-(2-methyl-2H-pyrazol-yl)-phenyl]-4,4-dioxo-5,6-dihydro-4H-4lambda6-[1,4,3]oxathiazin-2-ylamino}-3-(2-fluorophenyl)-propan-1-ol]
7 | CN(C)C(=O)c1ccc(-c2ccc(C3C(C)(C)OC(N[C@@H](CCO)c4ccccc4F)=NS3(=O)=O)cc2)cc1 (stereo partly drawn) [Example 112, 4′-{2-[(S)-1-(2-fluorophenyl)-3-hydroxy-propylamino]-6,6-dimethyl-4,4-dioxo-5,6-dihydro-4H-4lambda6-[1,4,3]oxathiazin-5-yl}-biphenyl-4-carboxylic acid dimethylamide]
4 | CC1(C)OC(N[C@@H](CCO)c2ccccc2F)=NS(=O)(=O)C1c1ccc(-c2cccnc2)cc1 (stereo partly drawn) [Example 113, (S)-3-[6,6-Dimethyl-4,4-dioxo-5-(4-pyridin-3-yl-phenyl)-5,6-dihydro-4H-4lambda6-[1,4,3]oxathiazin-2-ylamino]-3-(2-fluorophenyl)-propan-1-ol]
